From paper PMC9944328 (Nature Communications, 2023)
Several values for one entry are separate records, joined by “and”; a condition that tells them apart may be missing. Equal values may be shown once. Read-outs that look alike come from different tables or passages of the source.

Columns and labels:
[1] = test system: acromegalic patients; details: cited from earlier work
Description: Somatostatin receptors (SSTRs) are members of the G protein-coupled receptor (GPCR) superfamily and contain five subtypes (SSTR1–5). SSTRs, especially SSTR2, are expressed at high levels in NETs and have emerged as important biomarkers[4],[6]. SSTRs and their endogenous ligands, somatostatin (SST) peptides, exert important physiological regulation of neuroendocrine functions. […] However, the use of SST for disease treatment is li ... || SSTR2 transmits extracellular signals into cells through Gαi/o coupling and β-arrestin recruitment pathways. cAMP inhibition causes decreased hormone secretion and cell proliferation[13],[14], while the β-arrestin recruitment results in subsequent receptor internalization thus influence the cell membrane distribution level and desensitization of SSTR2, which may lead to drug resistance and poor clinical curative effect[15]–[18].

[2] = target: SSTR2 (Homo sapiens, UniProt P30874); experiment: Bystander BRET endosomal trafficking (β-arrestin 1-Nluc, FYVE-mVenus), HEK293 (SSTR2 wild-type); format: cell-based; design: The human full-length SSTRs and mutants were cloned into the pcDNA3.1+ vector; expressed in transfected cells; host or cells: HEK293; details: for Emax: HEK293;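 on all read-outs here: HEK293 cells coexpressing Nluc-tagged β-arrestin 1 and mVenus-fused FYVE endosomal marker, bystander BRET ratio read after ligand addition, coelenterazine h substrate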
Sequence of SSTR2 (Homo sapiens, UniProt P30874) (P30874 whole entry, the tested form may be a part): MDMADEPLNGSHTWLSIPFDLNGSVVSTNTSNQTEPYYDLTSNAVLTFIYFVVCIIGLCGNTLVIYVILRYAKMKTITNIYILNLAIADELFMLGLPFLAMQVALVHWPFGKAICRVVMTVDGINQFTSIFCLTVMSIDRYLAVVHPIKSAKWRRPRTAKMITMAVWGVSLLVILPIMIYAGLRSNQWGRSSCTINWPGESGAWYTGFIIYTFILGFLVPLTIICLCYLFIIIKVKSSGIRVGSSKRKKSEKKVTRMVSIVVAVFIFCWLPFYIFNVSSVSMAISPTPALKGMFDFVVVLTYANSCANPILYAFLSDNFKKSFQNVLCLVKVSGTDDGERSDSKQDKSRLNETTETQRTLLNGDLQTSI
Method: (§1) Wild-type or mutant SSTR2, β-arrestin 1-Nluc and FYVE-mVenus were co-transfected in HEK293 cells at a ratio of 1:0.5:4 on six-well plates. The next day, the transfected cells were plated on white 96-well and incubated overnight, and then cells were incubated with 90 µL HBSS containing 20 mM HEPES and coelenterazine h (5 µM) at room temperature for 40 min. After incubation, ligand was added and the signal was measured using the Synergy H1 microplate reader (BioTek) to determine a BRET ratio.

[3] = test system: SSTR2; experiment: SSTR2 internalization by ELISA, HEK293, 30 min 37 °C (wild-type); format: cell-based, human; details: for Internalization of wild-type SSTR2: same concentration for both drugs, also confocal and Bystander BRET
Method: HEK293 cells were seeded into 96-well microplates at a density of 4 × 10^4 cells/well and cultured for 24 h at 37 °C with 5% CO2 and were transfected using the same procedure as the cAMP accumulation assay. The plates were washed with washing buffer (PBS) the day after transfection, and were fixed with 4% formalin at room temperature for 30 min. Cells were washed with washing buffer and blocked with PBS supplemented with 5% BSA for 1 h at room temperature. After that, cells were incubated with anti-Flag antibody (1:1000 diluted with PBS containing 5% BSA, Proteintech: 66008-4-Ig) for 1 h at room temperature. After 1 h incubation, cells were washed with washing buffer and incubating with HRP-conjugated secondary antibody for 2 h at room temperature. After incubating and washing, 50 μl of chromogenic solution was added to each well, and reacted at room temperature for 10 min, and then 0.5 M HCl were added to stop the reaction.
All data presented are means at least three independent experiments.

[4] = target: T1, SSTR2 mutants (Homo sapiens, UniProt P30874, T194A); experiment: SSTRs Gi-mediated cAMP inhibition, GloSensor, HEK293, 5 μM forskolin, 15 min room temperature (SSTR2 mutants); format: cell-based; design: Best-fit Bottom, cAMP inhibition / Best-fit Top, cAMP inhibition / Span, cAMP inhibition / Bottom (best-fit value) / Top (best-fit value) / Span (best-fit value) / Span (best-fit) / Bottom (best-fit) / Top (best-fit) / Best-fit Bottom / Best-fit Top / Best-fit Span / Top / Span: scale not given here; details: T194A, best-fit, runs 1-3
T1 construct: The human full-length SSTRs and mutants were cloned into the pcDNA3.1+ vector; expressed in transfected cells; host or cells: HEK293 (ATCC, CRL-1573)
T1 sequence (P30874 whole entry T194A): as the sequence (P30874 whole entry, the tested form may be a part) above, with T194A counted along it
Method: The levels of the intracellular 3′, 5′-cyclic AMP (cAMP) were measured by the GloSensor cAMP assay (Promega) as described in the previous studies[28],[41] which has been widely used. The human full-length SSTRs and mutants were cloned into the pcDNA3.1+ vector with a HA signal sequence followed by a Flag tag at the N-terminus. HEK293 cells (ATCC, CRL-1573) were seeded into 6-well microplates at a density of 1.0 × 10^6 cells/well and cultured for 24 h at 37 °C with 5% CO2. Cells were then co-transfected with SSTR wild-type or mutants and GloSensor plasmids. After 24 h of transfection, the cells were dissociated with TrypLE™ Express Enzyme (1X) (Thermo Fisher Scientific) and collected by centrifugation at 500 × g for 5 min. Then the collected cells were suspended in Hank’s balanced salt solution [HBSS (Thermo Fisher Scientific)] supplemented with […] (YEASEN), and then the suspension cells were seeded into 96-well plates with 90 μl/well. After incubating at room temperature for 40 min, 5 μM forskolin and ligands diluted in HBSS were added to each well and the plates were incubated at room temperature for 15 min. […] were measured using the Synergy H1 microplate reader (BioTek) and the data presented are means of at least three independent experiments.

[5] = target: SSTR2 mutants (Homo sapiens, UniProt P30874, N276A); experiment: Bystander BRET endosomal trafficking (β-arrestin 1-Nluc, FYVE-mVenus), HEK293 (SSTR2 mutants); details: best-fit value;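 further: Read-out is the BRET ratio between Nluc-fused β-arrestin 1 and the early endosome marker FYVE-mVenus, measured after ligand addition with coelenterazine h as substrate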;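 on Bottom: percent of maximal wild-type response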
Sequence of SSTR2 mutants (Homo sapiens, UniProt P30874, N276A) (P30874 whole entry N276A, the tested form may be a part): as the sequence (P30874 whole entry, the tested form may be a part) above, with N276A counted along it
Method: as §1

[6] = target: SSTR2 mutants (Homo sapiens, UniProt P30874, F294A); experiment: as above; details: for Bottom: best-fit value
Sequence of SSTR2 mutants (Homo sapiens, UniProt P30874, F294A) (P30874 whole entry F294A): as the sequence (P30874 whole entry, the tested form may be a part) above, with F294A counted along it
Method: as §1

[7] = Best-fit values, WT-1 (N276A set)
[8] = Best-fit values, WT-1 (P220A, I130A, F265A sets)
[9] = Best-fit values, WT-1 (R140A, Y312A sets)
[10] = Best-fit values, WT-1/-3 (W269A set), WT-2 (N276A set), WT-1 (I284A set)
[11] = Best-fit values, WT-2 (P220A, I130A, F265A sets)
[12] = Best-fit values, WT-2 (R140A, Y312A sets)
[13] = Best-fit values, WT-2 (W269A, I284A sets)
[14] = Best-fit values, WT-3 (N276A set)
[15] = best-fit, SSTR2 WT-1 (control in F294A block), run 1
[16] = best-fit, SSTR2 WT-1 (control in K291A block), run 1
[17] = best-fit, SSTR2 WT-2 (control in F294A block), run 2
[18] = best-fit, SSTR2 WT-2 (control in K291A block), run 2
[19] = best-fit value, WT-1 (F265A, I284A, K291A blocks)
[20] = best-fit value, WT-1 (N276A, F294A blocks)
[21] = best-fit value, WT-2 (F265A, I284A, K291A blocks)
[22] = best-fit value, WT-2 of N276A block = WT-3 of F294A block
[23] = best-fit value, WT-3 (F265A, I284A, K291A blocks)
[24] = best-fit value, WT-3 of N276A block = WT-2 of F294A block

C[C@@H](O)[C@@H]1NC(=O)[C@H](CCCCN)NC(=O)[C@@H](Cc2c[nH]c3ccccc23)NC(=O)[C@H](Cc2ccccc2)NC(=O)[C@@H](NC(=O)[C@H](N)Cc2ccccc2)CSSC[C@@H](C(=O)N[C@H](CO)[C@@H](C)O)NC1=O [octreotide]
Acromegalic patients who do not respond well [1]: ~ 30%
SSTR2 expression level during administration [1]: down-regulated
Bottom [2, 7]: -3.249
Span [2, 7]: 103
Top [2, 7]: 99.78
Bottom [2, 8]: 16.02
Span [2, 8]: 79.41
Top [2, 8]: 95.44
Bottom [2, 9]: -2.667
Span [2, 9]: 105.4
Top [2, 9]: 102.8
Span ([2]; Best-fit values, WT-1/-3 (W269A set), WT-2 (N276A set)): 83.76
Bottom [2, 10]: 4.545
Top [2, 10]: 88.3
Bottom [2, 11]: 0.5214
Span [2, 11]: 104.2
Top [2, 11]: 104.7
Bottom [2, 12]: -1.531
Span [2, 12]: 100.4
Top [2, 12]: 98.89
Span ([2]; Best-fit values, WT-2 (W269A set)): 83.11
Bottom [2, 13]: 7.543
Top [2, 13]: 90.66
Bottom [2, 14]: -1.634
Span [2, 14]: 102.4
Top [2, 14]: 100.7
Emax ([2]; Bystander BRET, SSTR2-WT, n=6, read-out: Emax): 100%
Bottom [2, 15]: 14.58
Span [2, 15]: 85.75
Top [2, 15]: 100.3
Span ([2]; best-fit, SSTR2 WT-1 (control in I284A and K291A blocks), run 1): 83.76
Bottom [2, 16]: 4.545
Top [2, 16]: 88.3
Bottom [2, 17]: 19.75
Span [2, 17]: 76.3
Top [2, 17]: 96.05
Span ([2]; best-fit, SSTR2 WT-2 (control in I284A and K291A blocks), run 2): 83.11
Bottom [2, 18]: 7.543
Top [2, 18]: 90.66
Bottom ([2]; best-fit, SSTR2 WT-3 (control in F294A block), run 3): -1.634
Internalization of wild-type SSTR2 [3]: obviously internalized

N#Cc1cccc(-c2ccc3ncc(-c4cc(F)cc(F)c4)c(N4CCC(N)CC4)c3c2)c1O [paltusotine]
Span [4]: 81 and 79.63 and 75.68
Top [4]: 82.51 and 80.87 and 82.26
Fold of WT ([2]; Bystander BRET EC50, SSTR2-WT): 1.00
EC50 ([2]; EC50, Bystander BRET, SSTR2-WT, n=6): 0.122 ± 0.00131 µM
EC50 ([2]; EC50, best-fit value, WT-1 (F265A, I284A, K291A blocks)): 0.0404 µM
EC50 ([2]; EC50, best-fit value, WT-1 (N276A, F294A blocks)): 0.25 µM
EC50 ([2]; EC50, best-fit value, WT-2 (F265A, I284A, K291A blocks)): 0.131 µM
EC50 ([2]; EC50, best-fit value, WT-2 of N276A block = WT-3 of F294A block): 0.219 µM
EC50 ([2]; EC50, best-fit value, WT-3 (F265A, I284A, K291A blocks)): 0.0585 µM
EC50 ([2]; EC50, best-fit value, WT-3 of N276A block = WT-2 of F294A block): 0.202 µM
Emax [2]: 100%
Bottom (best-fit) ([2]; WT-1 (run 1)): 1.413
LogEC50 (best-fit) ([2]; WT-1 (run 1)): -7.394
Span (best-fit) ([2]; WT-1 (run 1)): 100
Top (best-fit) ([2]; WT-1 (run 1)): 101.4
Bottom (best-fit) ([2]; WT-2 (run 2)): -7.096
LogEC50 (best-fit) ([2]; WT-2 (run 2)): -6.882
Span (best-fit) ([2]; WT-2 (run 2)): 113.5
Top (best-fit) ([2]; WT-2 (run 2)): 106.4
Bottom (best-fit) ([2]; WT-3 (run 3)): -1.006
LogEC50 (best-fit) ([2]; WT-3 (run 3)): -7.233
Span (best-fit) ([2]; WT-3 (run 3)): 104.3
Top (best-fit) ([2]; WT-3 (run 3)): 103.3
Bottom [2, 19]: 1.413
LogEC50 [2, 19]: -7.394
Span [2, 19]: 100
Top [2, 19]: 101.4
Bottom [2, 20]: -1.996
LogEC50 [2, 20]: -6.603
Span [2, 20]: 108.2
Top [2, 20]: 106.2
Bottom [2, 21]: -7.096
LogEC50 [2, 21]: -6.882
Span [2, 21]: 113.5
Top [2, 21]: 106.4
Bottom [2, 22]: -1.129
LogEC50 [2, 22]: -6.66
Span [2, 22]: 107.2
Top [2, 22]: 106.1
Bottom [2, 23]: -1.006
LogEC50 [2, 23]: -7.233
Span [2, 23]: 104.3
Top [2, 23]: 103.3
Bottom [2, 24]: -1.982
LogEC50 [2, 24]: -6.696
Span [2, 24]: 107.7
Top [2, 24]: 105.7
Receptor internalization ([3]; SSTR2 WT, compared with octreotide, Fig. 1d–f): less receptor internalization
Internalization of wild-type SSTR2 [3]: reduced
Bottom ([5]; N276A-1 (run 1)): 0.05559
Bottom ([5]; N276A-2 (run 2)): -0.1543
Bottom ([5]; N276A-3 (run 3)): -2.441
EC50 [6]: 2.094 ± 0.00118 µM
Emax ([6]; HEK293): 95.1 ± 4.53%
Bottom ([6]; F294A-1 (run 1)): 0.7189
Bottom ([6]; F294A-2 (run 2)): -2.342
Bottom ([6]; F294A-3 (run 3)): -0.7874
